Test results from patent publication US11078188B2, “Dihydroquinoxaline bromodomain recognition protein inhibitor, preparation method and use thereof” (SHANGHAI INSTITUTE OF MATERIA MEDICA, CHINESE ACADEMY OF …, priority 2017, dated 2021).

Legend:
[1] = tested on: human myeloma cells MM.1S; experiment: MM.1S cell viability, CCK-8 method; assay type: cell-based; conditions: for IC50: 72 h treatment, CCK-8; for inhibitory activity against the MM.1S cell line (in words): compared with positive (+)-JQ1
Method: The MM.1S cell line was tested for cell viability. The test methods were as follows: human myeloma cells MM.1S were treated with compound for 72 h, and the proliferation inhibition effect and degree of the compound were detected by CCK-8 method.

CYP enzyme = experiment: Mechanistic inhibition test (TDI test); assay type: in vitro ADME; conditions: human liver microsomes 0.2 mg/ml; mechanism inhibition if kobs greater than 200
Method: The system which was 200 μl of human liver microsomes (final concentration: 0.2 mg/ml) was used for mechanistic inhibition incubation. The system contained 10 μl compound, mixed positive inhibitor (Troleandomycin 10 μl, Paroxetine 10 μl, Tienilic acid 10 μM, Furafylline 10 μl) or 10 μl negative control PRO. After NADPH (final concentration: 1 mM) or PBS was added, the system was incubated for 0 min, 5 min, 10 min and 30 min, then NADPH (final concentration: 1 mM) and mixed probe substrate (Midazolam 5 μM, Testosterone 50 μl, Dextromethophan 5 μM, Diclofenac 10 μl, Phenacetin 5 0 μM, S-(+)-mephenytoin 50 μl) were added and incubated for 10 min. Then the reaction was stopped. The test for positive inhibitor CYP2C19 was carried out alone, the inhibitor S-(+)-fluoxetine was 100 μM. The enzyme activity was calculated by measuring the relative production amount of metabolite. kobs was calculated.
(§1) HLM Clint (μl/min/mg) refers to the clearance rate of compounds in human liver microsomes having a unit of μl/min/mg; mLM Clint (μl/min/mg) refers to the clearance rate of compounds in mouse liver microsomes having a unit of μl/min/mg; HLM t1/2 (min) refers to the half-life of the compound in human liver microsomes having a unit of minutes; mLM t1/2 (min) refers to the half-life of the compound in mouse liver microsomes having a unit of minutes. TDI means that the mechanism inhibition test of compounds on CYP enzyme evaluates whether the compound has time-dependent inhibition of the enzyme.

[2] = Metabolic stability in human liver microsomes; assay type: in vitro ADME; conditions: human liver microsomes 0.5 mg/ml, 1 μM compound, NADPH
Method: The system which was 150 μl of human liver microsomes (final concentration: 0.5 mg/ml) was used for metabolic stability incubation. The system contained reduced coenzyme II (NADPH) (final concentration: 1 mM) and 1 μM compound, positive control or negative control. The reaction was terminated with acetonitrile containing (imiprozine, batch number: 3221; tinidazole, given) at 0 min, 5 min, 10 min, and 30 min, respectively. The mixture was vortexed for 10 min, centrifuged at 15000 rpm for 10 min, and 50 μl of the supernatant was injected into a 96-well plate. The metabolic stability of the compound was calculated by measuring the relative reduction in the original medicament.
as §1

BRD4 (I) = BRD4 (I) (Homo sapiens (Human), UniProt O60885); experiment: Fluorescence anisotropy (FA) binding test on BRD4 (I); conditions: BRD4 (I) 10 nM, fluorescent (+)-JQ1 substrate 5 nM, read-out: BRD4 (1) IC50
Method: The binding activity of the compound to BRD4 (I) was tested using a fluorescence anisotropy (FA) method. The principle of FA test is to calculate and analyze the fluorescence polarization values in the horizontal and vertical directions by detecting the change of molecular weight before and after the interaction of fluorescein-labeled small molecules with other molecules. If the equilibrium of the binding between the fluorescently labeled small molecule and macromolecule is established, it will move slowly when excited, and the measured fluorescence polarization value will increase. If the binding between the fluorescently labeled small molecule and the macromolecule is replaced by another ligand, its rotation or flipping speed in the free state will be faster, and the emitted light will be depolarized relative to the plane of the excitation light, and the measured polarized light value will decrease to calculate the fluorescence anisotropy of the sample.
Expression and purification of the BRD4(I) recognition domain: colonies of newly transformed plasmid DNA from E. coli BL21(DE3)-condon plus-RIL cells were cultivated in 50 mL of Terrific Broth medium containing 50 μg/mL kanamycin and 34 μg/mL chloramphenicol at 37° C. overnight (starting culture). The starting culture was then diluted 100-fold in 1 L of fresh TB medium and the cells were grown at 37° C. to an optical density of about 0.8 at OD600 and then the temperature was lowered to 16° C. When the system was equilibrated at 16° C., the optical density at OD600 was approximately 1.2, and protein expression was induced with 0.2 mmol of isopropyl-β-D-thiogalactopyranoside (IPTG) overnight at 16° C. Bacteria were harvested by centrifugation (4000×g, 20 minutes, 4° C.) and stored as a pellet at −80° C. The cells expressing His 6-tagged protein was resuspend in lysis buffer [50 mmol 4-hydroxyethylpiperazineethanesulfonic acid (HEPES), 25° C., pH 7.5, 500 mmol NaCl, 10 mmol imidazole, 5% glycerol and freshly added 0.5 mmol of tris(2-carboxyethyl)phosphine hydrochloride (TCEP) and 1 mmol of phenylmethanesulfonyl fluoride (PMSF)] and lysed at 4° C. using JN 3000PLUS high pressure homogenizer (JNBIO-Guangzhou, China). The lysate was clarified by centrifugation (12,000×g for 1 hour at 4° C.) and applied to a nickel-nitriloacetate agarose column. The column was washed once with 50 mL of wash buffer containing 30 mmol of imidazole. The protein was eluted using imidazole in an elution buffer in a stepwise elution (100-250 mmol imidazole in 50 mmol HEPES, 25° C., pH 7.5, 500 mmol NaCl, 5% glycerol). All fractions were collected and monitored by SDS-polyacrylamide gel electrophoresis (Bio-Rad Criterion TM Precast Gels, 4-12% Bis-Tris, 1.0 mm, from Bio-Rad, CA). After 1 mmol of dithiothreitol (DTT) was added, the eluted proteins were treated with tobacco […] virus (TEV) protease overnight at 4° C. to remove the His6 tag. The protein was concentrated and further purified by size exclusion chromatography on a Superdex 75 16/60 HiLoad gel filtration column. The samples were monitored by SDS-polyacrylamide gel electrophoresis and concentrated to 8-10 mg/mL with gel filtration buffer, 10 mmol Hepes pH 7.5, 500 mM NaCl, 1 mmol DTT, and used for protein binding assays and crystallization.
The fluorogenic substrate was (+)-JQ1 linked to a fluorescent molecule and the working concentration was 5 nM. BRD4 (I) protein had 10 nM of working concentration and the total reaction system was 40 μL. The buffer was 50 mM 4-hydroxyethylpiperazineethanesulfonic acid (HEPES) pH 7.4, 150 mM NaCl, 0.5 mM 3[(3-cholamidopropyl)dimethylammonio]propanesulfonate (CHAPS). […] The final concentration of DMSO was chosen to be 0.2%, taking into account the solubility of the compound and the effect of DMSO on the assay. All measurements were made under these conditions. […]

[3] = Metabolic stability in mouse liver microsomes; assay type: in vitro ADME

| Compound | IC50 [1] [nM] | inhibitory activity against the MM.1S cell line (in words) [1] | TDI (CYP enzyme) | HLM Clint [2] [µL/min/mg] | HLM t1/2 [2] [min] | IC50 (BRD4 (I)) [nM] | MLM t1/2 [3] [min] | mLM Clint [3] [µL/min/mg] | IC50 ([1]; Homo sapiens, MM1.S) [nM] | microsomal CLint at 1 μM ([2]; read-out: HLM Clint) [µL/min/mg] | half-life at 1 μM ([2]; read-out: HLM t1/2) [min] | half-life at 1 μM ([3]; read-out: half-lives in mouse liver microsomes) [min] | microsomal CLint at 1 μM ([3]; read-out: mLM Clint) [µL/min/mg] |
| --- | --- | --- | --- | --- | --- | --- | --- | --- | --- | --- | --- | --- | --- |
| Cc1ccc(-n2nc(C(=O)N3CCN(C)CC3)nc2-c2ccc3c(c2)N(C2CCCC2)[C@H](C)C(=O)N3C)cc1 [Example 6] | 13.6 ± 5.45 | better inhibitory activity against the MM.1S cell line than the positive (+)-JQ1 | no | 61 | 23 | 6.5 | 41 | 34 |  |  |  |  |  |
| Cc1ccc(-n2nc(C(=O)N3C[C@@H](C)N[C@@H](C)C3)nc2-c2ccc3c(c2)N(C2CCCC2)[C@H](C)C(=O)N3C)cc1 [Example 12] |  | better inhibitory activity against the MM.1S cell line than the positive (+)-JQ1 | no |  |  | 4.9 |  |  | 5.42 ± 1.14 | 52 | 27 | 193 | 7 |
